From patent US20170071203A1, “Active compound combinations having insecticidal properties” (BAYER CROPSCIENCE AKTIENGESELLSCHAFT, priority 2014, published 2017)

Key:
Assay type in all cases: in vivo
[1] = system: green peach aphid (Myzus persicae); assay: Myzus persicae - spray test
Excerpt: (§1) The expected activity for a given combination of two active compounds can be calculated according to S. R. Colby, Weeds 15 (1967), 20-22 as follows:
(§2) • X is the kill rate, expressed in % of the untreated control, when active compound A is applied at an application rate of m g/ha or at a concentration of m ppm, • Y is the kill rate, expressed in % of the untreated control, when active compound B is applied at an application rate of n g/ha or at a concentration of n ppm and • E is the kill rate, expressed in % of the untreated control, when active compounds A and B is applied at application rates of m and n g/ha or at a concentration of m and n ppm, then
(§3) If the observed insecticidal efficacy of the combination is higher than the one calculated as “E”, then the combination of the two compounds is more than additive, i.e., there is a synergistic effect.
(§4) To produce a suitable preparation of active compound, 1 part by weight of active compound is mixed with the stated amount of solvents and is diluted with water, containing an emulsifier concentration of 1000 ppm, to the desired concentration. To produce a suitable preparation of a spore suspension the spores are diluted with emulsifier containing water to the desired concentration. Further test concentrations are prepared by dilution with emulsifier containing water.
Chinese cabbage (Brassica pekinensis) leaf disks infected with all instars of the green peach aphid (Myzus persicae), are sprayed with a preparation of the active ingredient of the desired concentration.
After the specified period of time, mortality in % is determined 100% means all aphids have been killed; 0% means none of the aphids have been killed. The mortality values determined thus are recalculated using the Colby-formula (see sheet 1).

[2] = system: two spotted spidermite (Tetranychus urticae); assay: Tetranychus urticae - spray test, OP-resistant
Excerpt: as §1, §2, §3, §4
French bean (Phaseolus vulgaris) leaf disks which are heavily infested with all stages of the two spotted spidermite (Tetranychus urticae), are sprayed with a preparation of the active ingredient of the desired concentration.
After the specified period of time, mortality in % is determined. 100% means all spider mites have been killed and 0% means none of the spider mites have been killed. The mortality values determined thus are recalculated using the Colby-formula (see sheet 1).

[3] = system: larvae of the cotton boll worm (Heliothis armigera); assay: Heliothis armigera - spray test
Excerpt: as §1, §2, §3
To produce a suitable preparation of active compound, 1 part by weight of active compound is mixed with the stated amount of solvent and is diluted with water, containing an emulsifier concentration of 1000 ppm, to the desired concentration. Further test concentrations are prepared by dilution with emulsifier containing water Ammonium salt and/or penetration enhancer in a dosage of 1000 ppm are added to the desired concentration if necessary.
Cotton plants (Gossypium hirsutum) are treated by being sprayed with the preparation of the active compound of the desired concentration and are infested with larvae of the cotton boll worm (Heliothis armigera).
After the specified period of time, the mortality in % is determined 100% means all caterpillars have been killed; 0% means none of the caterpillars have been killed. The mortality values determined thus are recalculated using the Colby-formula (see sheet 1).

[4] = system: mustard beetle larvae (Phaedon cochleariae); assay: Phaedon cochleariae - spray test; details: 20 g ai/ha
Excerpt: as §1, §2, §3
To produce a suitable preparation of active compound, 1 part by weight of active compound is mixed with the stated amount of solvents and is diluted with water, containing an emulsifier concentration of 1000 ppm, to the desired concentration. […]
After the specified period of time, mortality in % is determined 100% means all beetle larvae have been killed and 0% means none of the beetle larvae have been killed. The mortality values determined thus are recalculated using the Colby-formula (see sheet 1).

## C/C(=N\C#N)N(C)Cc1ccc(Cl)nc1 [Acetamiprid]
[1]; 1.6 g ai/ha
  Efficacy in % after 6d: 70%
[2]; 0.8 g ai/ha
  Efficacy in % after 6d: 0%

## CN/C(=N\[N+](=O)[O-])NCc1cnc(Cl)s1 [Clothianidin]
[1]; 0.15 g ai/ha
  Efficacy in % after 6d: 0%
[2]; 4 g ai/ha
  Efficacy in % after 2d: 0%

## CN/C(=N/CC1CCOC1)N[N+](=O)[O-] (stereo not drawn) [Dinotefuran]
[1]; 4.8 g ai/ha
  Efficacy in % after 6d: 0%
[1]; 9.6 g ai/ha
  Efficacy in % after 6d: 70%
[2]; 4 g ai/ha
  Efficacy in % after 6d: 0%
[2]; 20 g ai/ha
  Efficacy in % after 2d: 0%

## O=[N+]([O-])NC1=NCCN1Cc1ccc(Cl)nc1 [Imidacloprid]
[2]; 0.8 g ai/ha
  Efficacy in % after 2d: 0%
[2]; 4 g ai/ha
  Efficacy in % after 2d: 0%
[3]; 80 ppm
  Efficacy in % after 1d: 0%
[3]; 160 ppm
  Efficacy in % after 1d: 0%
[3]; 320 ppm
  Efficacy in % after 1d: 30%
[3]; 320 ppm, after 2 d
  Efficacy in % after 2d: 70%

## N#C/N=C1\SCCN1Cc1ccc(Cl)nc1 [Thiacloprid]
[1]; 0.8 g ai/ha, after 1 d
  Efficacy in % after 1d: 0%

## CN1COCN(Cc2cnc(Cl)s2)/C1=N\[N+](=O)[O-] [Thiamethoxam]
[4]; after 2 d, Chinese cabbage leaf disks
  Efficacy in % after 2d: 0%
[4]; after 6 d
  Efficacy in % after 6d: 0%

## CS(=O)(=O)NC(=O)c1cccc(-c2cnc(-c3cccnc3)s2)n1 [Thiazolamid (II-11)]
[2]; 20 g ai/ha
  Efficacy in % after 2d: 0%
